Source: ChEMBL document CHEMBL1153151, “Novel P2-P4 macrocyclic inhibitors of HCV NS3/4A protease by P3 succinamide fragment depeptidization strategy” (Bioorg Med Chem Lett, 2010)
Values belong to the compound of their own block, whether it stands above or below them.

Tests used:
[1] = Inhibition of HCV NS3/4A protease; parameters: species or system Hepacivirus hominis
[2] = tested on: Hepatitis C virus; test: Antiviral activity against HCV 1b infected in Huh7 cells assessed as inhibition viral subgenomic replication by luciferase based replicon assay; format: functional, organism-based, Hepacivirus hominis; conditions: genotype 1b, Huh-7
[3] = (§1) Cmax in Wistar rat at 4 mg/kg, po; format: ADME, organism-based; parameters: dose 4 mg/kg, route oral; conditions: Wistar, in vivo
[4] = tested on: Rattus norvegicus; test: AUC (0 to infinity) in Wistar rat plasma at 4 mg/kg, po; format: ADME, organism-based; parameters: time infinity, dose 4 mg/kg, route oral; conditions: in vivo
[5] = Drug level in Wistar rat liver at 4 mg/kg, po after 4 hrs; format: ADME, organism-based; parameters: dose 4 mg/kg, route oral; conditions: read-out: AUC
[6] = tested on: Rattus norvegicus; test: as §1; format: ADME, organism-based; parameters: dose 4 mg/kg, route oral; conditions: in vivo, BLD = below limit of detection

SMILES: C=C[C@@H]1C[C@]1(NC(=O)[C@@H]1C[C@@H]2CN1C(=O)[C@H](C1CCCCC1)CC(=O)NCCCCCc1cccc3c1CN(C3)C(=O)O2)C(=O)NS(=O)(=O)C1CC1
Ki [1]: 0.76 nM
EC50 [2]: 12 nM
Cmax [3]: 50 nM
AUC [4]: 0.12 µM·h
concentration at 4 h [5]: 2200 nM

SMILES: C=C[C@@H]1C[C@]1(NC(=O)[C@@H]1C[C@@H]2CN1C(=O)[C@H](C(C)C)CC(=O)NCCCCCc1cccc3c1CN(C3)C(=O)O2)C(=O)NS(=O)(=O)C1CC1
Ki [1]: 1.4 nM
EC50 [2]: 100 nM

SMILES: C=C[C@@H]1C[C@]1(NC(=O)[C@@H]1C[C@@H]2CN1C(=O)[C@H](C(C)C)CC(=O)N(C(C)C)CCCCCc1cccc3c1CN(C3)C(=O)O2)C(=O)NS(=O)(=O)C1CC1
Ki [1]: 0.72 nM
EC50 [2]: 35 nM
Cmax [3]: 80 nM
AUC [4]: 0.22 µM·h
concentration at 4 h [5]: 2200 nM

SMILES: C=C[C@@H]1C[C@]1(NC(=O)[C@@H]1C[C@@H]2CN1C(=O)[C@H](C1CCCCC1)CC(=O)NCCCCCc1cc(OC)cc3nc(-c4ccccc4)cc(c13)O2)C(=O)NS(=O)(=O)C1CC1
Ki [1]: 0.56 nM
EC50 [2]: 7 nM
Cmax [6]: BLD
concentration at 4 h [5]: 100 nM

Further compounds by falling Ki [1], results first:

Ki [1]: 0.61 nM
EC50 [2]: 11 nM
Cmax [3]: 90 nM
AUC [4]: 0.09 µM·h
concentration at 4 h [5]: 3000 nM
SMILES: C=C[C@@H]1C[C@]1(NC(=O)[C@@H]1C[C@@H]2CN1C(=O)[C@H](C1CCCCC1)CC(=O)N(C(C)C)CCCCCc1cccc3c1CN(C3)C(=O)O2)C(=O)NS(=O)(=O)C1CC1

Ki [1]: 0.6 nM
EC50 [2]: 37 nM
Cmax [3]: 380 nM
AUC [4]: 1.1 µM·h
concentration at 4 h [5]: 9300 nM
SMILES: C=C[C@@H]1C[C@]1(NC(=O)[C@@H]1C[C@@H]2CN1C(=O)[C@H](C1CCCCC1)CC(=O)N(C(C)C)CCCCCc1cc(OC)cc3nc(-c4ccccc4)cc(c13)O2)C(=O)NS(=O)(=O)C1CC1

Ki [1]: 0.06 nM
EC50 [2]: 12 nM
SMILES: C=C[C@@H]1C[C@]1(NC(=O)[C@@H]1C[C@@H]2CN1C(=O)[C@H](C(C)C)NC(=O)OCCC/C=C\c1cccc3c1CN(C3)C(=O)O2)C(=O)NS(=O)(=O)C1CC1
